Where “and” joins values, the source holds several entries; their conditions need not be identical. Equal entries are not always repeated. Where two headings read alike, the source gives them in different places.
Columns and labels:
female DBF mice [1] = conditions: in vivo, po
Description: The Mouse Hypercalcemia Assay
(§1) The Mouse Hypercalcemia Assay is a six day hypercalcemia test for toxicity and selectivity.
(§2) (4) Materials and Method for the Mouse Hypercalcemia Assay:
(§3) Weanling, virus-antibody-free, five to six weeks old female DBF mice (Harlan, Indianapolis, Ind.) are used for all the studies. Animals are allowed to acclimate to local vivarium conditions for 2 days. […] The animals then are divided into groups with 4-5 mice per group. Different doses of test compounds prepared in 10% Ethanol and 90% sesame oil are administered to mice orally via gavage for 6 days. 1α-25(OH)2D3 0.5 μg/kg/d was also given to one group of mice as the positive control. […] Raw data of group differences is assessed by analysis of variance (ANOVA) using Fisher's protected least significant difference (PLSD) where the significance level was P<0.05.

rat osteocalcin promoter = experiment: OCN (osteocalcin) promoter assay; format: cell-based; conditions: Rattus norvegicus, 48 h, RG-15 (ROS 17/2.8) cells, 48 hr treatment, luciferase; several values separated by /
Outline: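 Rat osteoblast-like RG-15 (ROS 17/2.8) cells stably carrying a luciferase reporter driven by the osteocalcin promoter, treated with compounds in DMSO (0.01% v/v final) in medium with 2% FBS. After 48 hr at 37 °C, cells were lysed and luciferase activity measured.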

RXR-VDR heterodimer = target: T1, RXR-VDR heterodimer (Homo sapiens, UniProt P11473); experiment: RXR-VDR heterodimerization assay (SaOS-2 cells); format: cell-based; conditions: Gal4-RXR-DEF/VP16-VDR-LBD luciferase reporter, several values in a cell separated by /
T1 construct: Add the Gal4-RXR-DEF and VP16-VDR-LBD; expressed in transfected cells; host or cells: SaOS-2 cells
T1 sequence (P11473 127-423 limits assumed): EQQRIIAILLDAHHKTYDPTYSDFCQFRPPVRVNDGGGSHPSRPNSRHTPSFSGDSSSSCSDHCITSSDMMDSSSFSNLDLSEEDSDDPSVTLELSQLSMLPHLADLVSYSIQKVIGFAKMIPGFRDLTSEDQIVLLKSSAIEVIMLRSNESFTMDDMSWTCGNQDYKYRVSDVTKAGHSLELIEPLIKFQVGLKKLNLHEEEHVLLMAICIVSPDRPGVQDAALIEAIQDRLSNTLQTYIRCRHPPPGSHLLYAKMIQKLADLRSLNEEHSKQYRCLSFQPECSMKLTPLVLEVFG
T1 sequence (P19793 201-462 partner limits assumed): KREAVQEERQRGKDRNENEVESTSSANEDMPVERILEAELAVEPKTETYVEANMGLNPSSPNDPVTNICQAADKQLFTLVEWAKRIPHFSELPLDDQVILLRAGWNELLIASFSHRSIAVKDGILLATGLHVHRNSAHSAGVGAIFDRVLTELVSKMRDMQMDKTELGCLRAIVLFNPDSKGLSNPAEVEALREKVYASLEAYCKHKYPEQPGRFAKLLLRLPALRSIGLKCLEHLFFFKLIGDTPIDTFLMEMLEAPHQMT

female DBF mice [2] = experiment: Mouse hypercalcemia assay; conditions: oral gavage for 6 days; serum ionized calcium 6 hours after last dosing
Description: The Mouse Hypercalcemia Assay
as §1, §2, §3

VDR = target: T2, VDR (Homo sapiens, UniProt P11473); experiment: VDR CTF (Caco-2 cell co-transfection) assay; format: cell-based; conditions: Caco-2 cells, pGal4-VDR-LBD co-transfection, luciferase; several values separated by /
T2 construct: the receptor expression vector pGal4-VDR-LBD (10 ng); expressed in transfected cells; host or cells: Caco-2 cells
T2 sequence (P11473 127-423 limits assumed): T1 sequence (P11473 127-423 limits assumed)
Method: 2. The Caco-2 Cell Co-Transfection Assay:
The Caco-2 cell assay is an indicator for the undesirable condition of hypercalcemia. This co-transfection assay is a surrogate assay for in vivo calcemic activity of VDR ligands. […] Preferred assay results are greater than 1000 nM.
(2) Materials and Method for the Caco-2 Cell Assay:
Caco-2 cells, grown in phenol red free, DMEM (Invitrogen, Carlsbad, Calif.) containing 10% charcoal-stripped FCS (Hyclone, Logan, Utah), were transfected with Fugene 6 reagent (Roche Diagnostics, Indianapolis, Ind.). Cells (5000/well) were plated 18 h before transfection in a 96 well plate. The Cells were transfected with Gal4-responsive reporter pFRLuc (150 ng, Stratagene, La Jolla Calif.) and the receptor expression vector pGal4-VDR-LBD (10 ng), along with Fugene 6 reagent (0.2 μl/well). The DNA-Fugene complex was formed by incubating the mixture for 30 min at room temperature. The cells were transfected in triplicate for 5 h, and treated with various concentrations of VDR ligands (form 0.01 nM to 10,000 nM concentration range) 18 h post-transfection. The luciferase activity was quantified using Steady-Glo reagent kit (Promega, Madison, Wis.) as per manufacturer's specifications.

IL-10 = IL-10 induction assay; format: cell-based; conditions: Homo sapiens, PBMC, TPA/PHA stimulated human PBMCs, IL-10 in supernatant by immunoassay; several values separated by /
Description: 6. The IL-10 Induction Assay
This is an in vitro efficacy assay for psoriasis, abscess and adhesion. Psoriasis involves both keratinocytes and immune cells. IL-10 is a unique cytokine because it is anti-inflammatory and immunosuppressive. This assay tells us whether a VDRM is able to function as an agonist in PBMCs ([…]) or not.
(6) Materials and Method for Human IL-10 Induction Assay:
Isolation of Peripheral Blood Mononuclear Cells (PBMCs):
B. Prepare sterile tubes with ficol.
C. Add diluted blood to tubes.
E. Discard the top layer and collect the cells from middle layer.
F. Divide all cells into four tubes and add media.
H. Aspirate off media and resuspend.
J. Centrifuge. at 1200 rpm for 10 minutes.
M. Dissolve PHA in water.
N. Plate TPA/PHA treated PBMCs in well plates.
Sample Collection and Assay:
S. Remove all the cells by centrifugation and assay the supernatant for IL-10 by immunoassay.
1) T. Perform […] using anti-human IL-10 antibody coated beads, as described by the manufacturer (Linco Research Inc., St. Charles, Mo.).

KERtr cells = experiment: Keratinocyte proliferation assay; format: cell-based; conditions: Homo sapiens, 72 h, BrdU incorporation, several values separated by /, read-out: Kera. Prolif. IC50

Mouse Hypercal (female DBF mice [1]) [µg/kg/day]	Structure (SMILES)	EC50 (rat osteocalcin promoter) [nM]	EC50 (RXR-VDR heterodimer)	Mouse Hypercal (female DBF mice [2]) [µg/kg/day]	EC50 (VDR) [nM]	IC50 (IL-10) [nM]	IC50 (KERtr cells) [nM]
0.06	C=C1/C(=C\C=C2/CCC[C@]3(C)[C@@H]([C@H](C)CCCC(C)(C)O)CC[C@@H]23)C[C@@H](O)C[C@@H]1O [AA, 1α,25-dihydroxyvitamin D3]						
	CCC(CC)(c1ccc(OCC(=O)C(C)(C)C)c(C)c1)c1ccc2oc(C(=O)NCC(=O)O)cc2c1 [Ex 32, [(5-{1-[4-(3,3-dimethyl-2-oxo-butoxy)-3-methyl-phenyl]-1-ethyl-propyl}-benzofuran-2-carbonyl)-amino]-acetic acid]	1	31 nM and 4 nM	>300	385	51	10

— patent US7579488B2 (Eli Lilly and Company, priority 2003, dated 2009)
